Laboratory results published in article PMC6412366, “The Limitations of Collagen/CPP Hybrid Peptides as Carriers for Cancer Drugs to FaDu Cells” (Molecules, 2019).

Tested on: FaDu cell surface
Experiment: Suramin wash (competitive binding) of FL8V1-treated FaDu cells
Type: cell-based, human
Settings: concluded from reversed incubation order
Method: FaDu cells were seeded into MatTek dishes (No. 1.5 coverglass, 35 mm). After the cells were at least 70% confluent, the media was removed and the cells were gently washed with PBS. […] The cells were washed twice with PBS. Additional EMEM medium was added before the cell cultures were imaged using confocal microscopy (λEX = 488 for FITC tag) using the 60X oil immersion objective.

Cc1ccc(C(=O)Nc2ccc(S(=O)(=O)O)c3cc(S(=O)(=O)O)cc(S(=O)(=O)O)c23)cc1NC(=O)c1cccc(NC(=O)Nc2cccc(C(=O)Nc3cc(C(=O)Nc4ccc(S(=O)(=O)O)c5cc(S(=O)(=O)O)cc(S(=O)(=O)O)c45)ccc3C)c2)c1 [suramin]
binding of suramin to the FaDu cell surface: does not bind
